Test results: ChEMBL document CHEMBL5634123, “Design and synthesis of 1H-benzo[d]imidazole selective HDAC6 inhibitors with potential therapy for multiple myeloma” (Eur J Med Chem, 2023)

Columns and labels:
[1] = biological target: T1, Protein deacetylase HDAC6 (Homo sapiens, UniProt Q9UBN7); experiment: Inhibition of HDAC6 (unknown origin) preincubated for 10 mins followed by substrate addition measured for 1 hr by fluorescence based assay
T1 sequence (Q9UBN7 whole entry): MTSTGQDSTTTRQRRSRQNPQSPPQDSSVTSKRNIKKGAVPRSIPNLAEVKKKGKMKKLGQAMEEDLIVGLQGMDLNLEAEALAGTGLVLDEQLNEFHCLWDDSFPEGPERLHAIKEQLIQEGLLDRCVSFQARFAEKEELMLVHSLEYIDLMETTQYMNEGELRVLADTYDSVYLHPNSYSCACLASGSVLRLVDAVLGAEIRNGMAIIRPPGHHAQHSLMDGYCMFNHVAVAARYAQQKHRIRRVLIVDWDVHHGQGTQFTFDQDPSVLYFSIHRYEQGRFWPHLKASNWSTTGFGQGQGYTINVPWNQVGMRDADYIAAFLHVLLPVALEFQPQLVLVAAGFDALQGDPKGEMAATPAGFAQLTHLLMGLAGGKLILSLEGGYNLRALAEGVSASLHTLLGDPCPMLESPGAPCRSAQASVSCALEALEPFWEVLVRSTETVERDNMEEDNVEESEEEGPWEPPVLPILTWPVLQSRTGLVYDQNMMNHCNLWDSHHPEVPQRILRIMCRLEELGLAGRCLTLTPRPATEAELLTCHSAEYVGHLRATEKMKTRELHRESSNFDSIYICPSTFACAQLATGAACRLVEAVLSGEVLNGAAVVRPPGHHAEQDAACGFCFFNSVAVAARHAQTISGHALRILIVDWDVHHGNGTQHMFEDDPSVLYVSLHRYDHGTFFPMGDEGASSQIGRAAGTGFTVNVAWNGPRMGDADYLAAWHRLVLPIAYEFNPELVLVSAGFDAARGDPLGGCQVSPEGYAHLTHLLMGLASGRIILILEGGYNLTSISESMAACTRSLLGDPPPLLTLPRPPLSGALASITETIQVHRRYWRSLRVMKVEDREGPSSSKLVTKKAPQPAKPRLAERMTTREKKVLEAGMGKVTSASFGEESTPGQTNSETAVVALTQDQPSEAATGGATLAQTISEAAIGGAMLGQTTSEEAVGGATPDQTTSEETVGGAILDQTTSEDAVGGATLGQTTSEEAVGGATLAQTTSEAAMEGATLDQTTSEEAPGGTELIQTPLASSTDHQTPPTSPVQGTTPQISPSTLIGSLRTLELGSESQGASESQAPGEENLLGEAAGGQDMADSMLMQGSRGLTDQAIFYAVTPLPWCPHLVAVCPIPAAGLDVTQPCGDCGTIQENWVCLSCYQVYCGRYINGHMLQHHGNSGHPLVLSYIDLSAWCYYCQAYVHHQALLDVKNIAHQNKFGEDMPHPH

[2] = tested on: RPMI-8226; experiment: cells; conditions: Homo sapiens, RPMI-8226, 24 h
[3] = tested on: HCCLM3; experiment: Cytotoxicity against human HCCLM3 cells assessed as inhibition of cell viability incubated for 24 hrs by CCK8 assay; type: functional, cell-based; conditions: HCCLM3, 24 h
[4] = tested on: HCT-116; experiment: Cytotoxicity against human HCT-116 cells assessed as inhibition of cell viability incubated for 24 hrs by CCK8 assay; type: functional, cell-based; conditions: HCT-116, 24 h
[5] = tested on: MDA-MB-468; experiment: cells; conditions: Homo sapiens, MDA-MB-468, 24 h
[6] = tested on: SGC-7901; experiment: Cytotoxicity against human SGC-7901 cells assessed as inhibition of cell viability incubated for 24 hrs by CCK8 assay; type: functional, cell-based; conditions: SGC-7901, 24 h
[7] = biological target: T2, Protein deacetylase HDAC6 (Homo sapiens) (UniProt Q9UBN7); experiment: Inhibition of HDAC6 (unknown origin) at 1 uM preincubated for 10 mins followed by substrate addition measured for 1 hr by fluorescence based assay relative to control; conditions: time 70.0 min
T2 sequence (whole entry): T1 sequence (Q9UBN7 whole entry)

[8] = biological target: Histone deacetylase 1 (Homo sapiens, UniProt Q13547); experiment: Inhibition of HDAC1 (unknown origin) preincubated for 10 mins followed by substrate addition measured for 1 hr by fluorescence based assay
Histone deacetylase 1, sequence (Q13547 whole entry): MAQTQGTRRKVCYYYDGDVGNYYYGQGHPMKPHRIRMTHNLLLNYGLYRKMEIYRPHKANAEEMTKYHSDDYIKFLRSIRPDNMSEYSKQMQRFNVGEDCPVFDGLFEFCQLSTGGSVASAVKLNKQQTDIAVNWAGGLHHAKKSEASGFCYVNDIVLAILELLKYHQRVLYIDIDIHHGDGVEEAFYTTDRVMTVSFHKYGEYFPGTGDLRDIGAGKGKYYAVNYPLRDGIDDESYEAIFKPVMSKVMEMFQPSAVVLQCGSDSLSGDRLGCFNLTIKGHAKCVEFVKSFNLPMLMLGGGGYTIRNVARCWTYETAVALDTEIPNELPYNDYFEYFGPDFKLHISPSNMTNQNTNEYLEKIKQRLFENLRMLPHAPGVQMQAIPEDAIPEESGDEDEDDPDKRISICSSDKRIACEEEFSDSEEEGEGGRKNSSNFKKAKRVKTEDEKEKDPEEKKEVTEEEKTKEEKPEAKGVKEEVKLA

Work on `CC(C)n1c(CNc2ccccc2)nc2cc(C(=O)NO)ccc21` yielded an IC50 [1] of 1.51 µM.
For `Cn1c([C@H](Cc2ccccc2)NCc2ccccc2)nc2cc(C(=O)NO)ccc21`, the IC50 [1] was 0.00758 µM, the IC50 [2] was 2.04 µM and the IC50 [3] was greater than 50 µM. It also gave an IC50 [4] of 5.52 µM, an IC50 [5] of 44 µM and an IC50 [6] of 40.9 µM.
`O=C(NO)c1ccc2c(c1)ncn2CCc1ccccc1` was tested, and the inhibition [7] was 70.3%.
With `CN(Cc1nc2cc(C(=O)NO)ccc2n1C)c1ccccc1` the IC50 [1] was 0.00891 µM, the IC50 [8] was 0.567 µM and the IC50 [2] was 0.661 µM. The IC50 [3] was 6.69 µM, the IC50 [4] was 9.95 µM and the IC50 [5] was 4.93 µM. For the same compound, the IC50 [6] was 3.69 µM.
`CCCCN(Cc1nc2cc(C(=O)NO)ccc2n1C)c1ccccc1` was tested, and the IC50 [1] was 0.00955 µM, the IC50 [8] was 0.634 µM and the IC50 [2] was 0.934 µM. The IC50 [3] was 3.49 µM, the IC50 [4] was 3.12 µM and the IC50 [5] was 8.17 µM. For the same compound, the IC50 [6] was 2.83 µM.
`Cn1c(CNc2ccccc2)nc2cc(C(=O)NO)ccc21` gave an IC50 [1] of 0.0158 µM, an IC50 [2] of 2.06 µM and an IC50 [3] of 41.5 µM. The IC50 [4] was 17.2 µM, the IC50 [5] was 9.6 µM and the IC50 [6] was greater than 50 µM.
With `O=C(NO)c1ccc2ncn(CCc3ccccc3)c2c1` the inhibition [7] was 23.4%.
With `Cn1c(COc2ccccc2)nc2cc(C(=O)NO)ccc21` the IC50 [1] was 0.0126 µM, the IC50 [2] was 2.52 µM and the IC50 [3] was 8.72 µM. For the same compound, the IC50 [4] was 2.26 µM, the IC50 [5] was 7.96 µM and the IC50 [6] was 9.81 µM.
`C[C@@H](NCc1ccccc1)c1nc2cc(C(=O)NO)ccc2n1C` showed an IC50 [1] of 0.00583 µM, an IC50 [8] of 0.841 µM and an IC50 [2] of 0.709 µM. It also gave an IC50 [3] of 1.45 µM, an IC50 [4] of 0.508 µM and an IC50 [5] of 6.01 µM. The IC50 [6] was 1.65 µM.
Work on `O=C(NO)c1ccc2nc[nH]c2c1` yielded an IC50 [1] of 4.35 µM and an IC50 [8] greater than 10 µM.
In the case of `Cn1c(CNc2cccc(F)c2)nc2cc(C(=O)NO)ccc21`, the IC50 [1] is reported as 0.00678 µM, the IC50 [2] is reported as 1.87 µM and the IC50 [3] is reported as 5.18 µM. It also gave an IC50 [4] of 1.43 µM, an IC50 [5] of 3.76 µM and an IC50 [6] of 13.6 µM.
For `CCn1c(CNc2ccccc2)nc2cc(C(=O)NO)ccc21`, the IC50 [1] was 0.853 µM.
`Cc1ccccc1NCc1nc2cc(C(=O)NO)ccc2n1C` gave an IC50 [1] of 0.0158 µM, an IC50 [2] of 2.19 µM and an IC50 [3] of 15 µM. For the same compound, the IC50 [4] was 6.3 µM, the IC50 [5] was 5.53 µM and the IC50 [6] was 10.8 µM.
Work on `Cn1c(CN2CCCCC2)nc2cc(C(=O)NO)ccc21` yielded an IC50 [1] of 0.0342 µM.
Compound `Cn1c(CNCc2ccccc2)nc2cc(C(=O)NO)ccc21` has an IC50 [1] of 0.0144 µM, an IC50 [8] of 0.976 µM and an IC50 [2] of 0.349 µM. The IC50 [3] was 2.62 µM, the IC50 [4] was 1.33 µM and the IC50 [5] was 10.8 µM. The IC50 [6] was 5.1 µM.
